Reference: patent US9745280B2, “Compound or pharmaceutically acceptable salt thereof, and pharmaceutical composition containing same as active ingredient” (SNU R&DB FOUNDATION, priority 2012, dated 2017)
Where two headings read alike, the source gives them in different places.

Legend:
[1] = system: H1299 NSCLC (non-small cell lung cancer) cells; experiment: Cancer cell growth inhibition (MTS); format: cell-based; settings: Homo sapiens, NCI-H1299, 48 hours, MTS reagent
Procedure: To investigate the inhibitory effect of the compounds of Examples of the present invention on cancer cell growth, the following experiment was performed. Particularly, H1299 NSCLC (non-small cell lung cancer) cells were distributed in a 96-well plate at the density of 5×10^3 cells/well, followed by culture in a 37° C., 5% CO2 incubator for 24 hours. The compound of each example was dissolved in DMSO (10 nM, 100 nM, 1 μM, 10 μM), which was treated to each well. 48 hours later, cell growth was measured by using MTS reagent (3-(4,5-dimethylthiazole-2-yl)-5-(3-carboxymethoxyphenyl)-2-(4-sulfophenyl)-2H-tetrazolium). The experiment was performed in triplicate and the standard error of the analysis result was corrected.

HIF-1α = HIF-1α inhibitory activity, hypoxia-response element-luciferase in HRE-A549 cells; format: cell-based; settings: for IC50: HRE-A549 cells, hypoxia-chamber 24 h, luciferase activity
Procedure: HRE-A549 cells stably transfected with hypoxia-response element-luciferase construct were incubated in Dulbecco's modified Eagle's medium. Following overnight serum deprivation, the cells were treated with or without Deguelin or example compounds. After 1 h incubation, the cells were incubated in hypoxia-chamber for 24 h at 37° C. Luciferase activity was measured by adding luciferase assay reagent (Promega, Madison, Wis.).

IC50 [1] [nM]	IC50 (HIF-1α; read-out: IC50) [nM]	Compound	further results
–	1280	COc1c(C(=O)Cc2ccc(F)c(F)c2)ccc2c1C=CC(C)(C)O2 [Example 56, 2-(3,4-difluorophenyl)-1-(5-methoxy-2,2-dimethyl-2H-chromen-6-yl)ethanone]	–
–	883	COc1c(C(=O)Cc2ccccc2)ccc2c1C=CC(C)(C)O2 [Example 59, 1-(5-methoxy-2,2-dimethyl-2H-chromen-6-yl)-2-phenylethanone]	–
–	334	COc1c(C(=O)Cc2ccccc2Cl)ccc2c1C=CC(C)(C)O2 [Example 64, 2-(2-chlorophenyl)-1-(5-methoxy-2,2-dimethyl-2H-chromen-6-yl)ethanone]	–
–	363	COc1c(C(=O)Cc2cccc(F)c2)ccc2c1C=CC(C)(C)O2 [Example 66, 2-(3-fluorophenyl)-1-(5-methoxy-2,2-dimethyl-2H-chromen-6-yl)ethanone]	–
–	78.8	COc1c(C(=O)Cc2ccccc2F)ccc2c1C=CC(C)(C)O2 [Example 67, 2-(2-fluorophenyl)-1-(5-methoxy-2,2-dimethyl-2H-chromen-6-yl)ethanone]	times lower concentration compared to Comparative Example 1 (Deguelin) (HIF-1α; HIF-1α inhibition, HRE-A549): 2
–	611	COc1c(C(=O)Cc2cccc(Cl)c2)ccc2c1C=CC(C)(C)O2 [Example 68, 2-(3-chlorophenyl)-1-(5-methoxy-2,2-dimethyl-2H-chromen-6-yl)ethanone]	–
–	1240	COc1c(C(=O)Cc2ccc(C#N)cc2)ccc2c1C=CC(C)(C)O2 [Example 72, 4-(2-(5-methoxy-2,2-dimethyl-2H-chromen-6-yl)-2-oxoethyl)benzonitrile]	–
–	1030	COc1c(C(=O)Cc2ccc(F)cc2)ccc2c1C=CC(C)(C)O2 [Example 73, 2-(4-fluorophenyl)-1-(5-methoxy-2,2-dimethyl-2H-chromen-6-yl)ethanone]	–
–	1270	COc1c(C(=O)Cc2ccc(Cl)cc2)ccc2c1C=CC(C)(C)O2 [Example 74, 2-(4-chlorophenyl)-1-(5-W methoxy-2,2-dimethyl-2H-chromen-6-yl)ethanone]	–
–	604	COc1c(C(=O)Cc2ccc(C(F)(F)F)cc2)ccc2c1C=CC(C)(C)O2 [Example 75, 1-(5-methoxy-2,2-dimethyl-2H-chromen-6-yl)-2-(4-(trifluoromethyl)phenyl)ethanone]	–
–	830	COc1cccc(CC(=O)c2ccc3c(c2OC)C=CC(C)(C)O3)c1 [Example 76, 1-(5-methoxy-2,2-dimethyl-2H-chromen-6-yl)-2-(3-methoxyphenyl)ethanone]	–
–	1450	COc1c(C(=O)Cc2cccc(O)c2)ccc2c1C=CC(C)(C)O2 [Example 83, 2-(3-hydroxyphenyl)-1-(5-methoxy-2,2-dimethyl-2H-chromen-6-yl)ethanone]	–
–	943	COc1c(C(=O)Cc2ccccc2O)ccc2c1C=CC(C)(C)O2 [Example 84, 2-(2-hydroxyphenyl)-1-(5-methoxy-2,2-dimethyl-2H-chromen-6-yl)ethanone]	–
–	791	COc1c(C(=O)Cc2ccc(O)cc2)ccc2c1C=CC(C)(C)O2 [Example 85, 2-(4-hydroxyphenyl)-1-(5-methoxy-2,2-dimethyl-2H-chromen-6-yl)ethanone]	–

Second part, the molecule before the results:

Compound	IC50 [1] [nM]	IC50 (HIF-1α; read-out: IC50) [nM]	further results
COc1cc2c(cc1OC)[C@H](C(=O)c1ccc3c(c1)C=CC(C)(C)O3)CCO2 (stereo in doubt) [Example 26, (6,7-Dimethoxychroman-4-yl) (2,2-dimethyl-2H-chromen-6-yl)methanone]	3800	–	–
COc1cc2c(cc1OC)[C@@H]1C(=O)c3ccc4c(c3O[C@@H]1CO2)C=CC(C)(C)O4 [Comparative Example 1 (Deguelin), (7aS,13aS)-9,10-Dimethoxy-3,3-dimethyl-13,13a-dihydro-3H-chromeno[3,4-b]pyrano[2,3-h]chromen-7(7aH)-one, reference compound]	110	–	IC50 (HIF-1α): 166 nM
CC1(C)C=Cc2c(ccc3c2O[C@@H]2COc4cc(O)c(O)cc4[C@@H]2C3=O)O1 [Example 4, (7aS,13aS)-13,13a-Dihydro-9,10-dihydroxy-3,3-dimethyl-3H-chromeno[3,4-b]pyrano[2,3-h]chromen-7(7aH)-one]	970	–	–
COc1cc2c(cc1OC)-c1c(oc3c4c(ccc3c1=O)OC(C)(C)C=C4)CO2 [Example 5, 9,10-Dimethoxy-3,3-dimethyl-3H-chromeno[3,4-b]pyrano[2,3-h]chromen-7-(13H)-one]	10100	–	–
COc1cc2c(cc1OC)[C@@H]1Cc3ccc4c(c3O[C@@H]1CO2)C=CC(C)(C)O4 [Example 7, (7aS,13aS)-9,10-Dimethoxy-3,3-dimethyl-7,7a,13,13a-tetrahydro-3H-chromeno[3,4-b]pyrano[2,3-h]chromene]	4200	–	–
CCO[C@@H]1c2ccc3c(c2O[C@@H]2COc4cc(OC)c(OC)cc4[C@H]12)C=CC(C)(C)O3 [Example 9, (7S,7aR,3aS)-9,10-Dimethoxy-3,3-dimethyl-7-ethoxy-7,7a,13,13a-tetrahydro-3H-chromeno[3,4-b]pyrano[2,3-h]chromene]	9800	–	–
CCCO[C@@H]1c2ccc3c(c2O[C@@H]2COc4cc(OC)c(OC)cc4[C@H]12)C=CC(C)(C)O3 [Example 10, (7S,7aR,3aS)-9,10-Dimethoxy-3,3-dimethyl-7-propoxy-7,7a,13,13a-tetrahydro-3H-chromeno[3,4-b]pyrano[2,3-h]chromene]	10500	–	–
COc1cc2c(cc1OC)[C@@H]1[C@H](OC(C)=O)c3ccc4c(c3O[C@@H]1CO2)C=CC(C)(C)O4 [Example 13, (7S,7aS,13aS)-9,10-Dimethoxy-3,3-dimethyl-7,7a,13,13a-tetrahydro-3H-chromeno[3,4-b]pyrano[2,3,h]chromen-7-yl acetate]	680	–	–
COc1cc2c(cc1OC)[C@@H]1/C(=N/O)c3ccc4c(c3O[C@@H]1CO2)C=CC(C)(C)O4 [Example 16, (7aR,13aS)-9,10-Dimethoxy-3,3-dimethyl-13,13a-dihydro-3H-chromeno[3,4-b]pyrano[2,3-h]chromen-7(7aH)-one oxime]	300	–	–
CO/N=C1\c2ccc3c(c2O[C@@H]2COc4cc(OC)c(OC)cc4[C@H]12)C=CC(C)(C)O3 [Example 17, (7aR,13aS)-9,10-Dimethoxy-3,3-dimethyl-13,13a-dihydro-3H-chromeno[3,4-b]pyrano[2,3-h]chromen-7(7aH)-one O-methyloxime]	4300	–	–
COc1cc2c(cc1OC)[C@@H]1C(=O)c3ccc(OC)c(CC=C(C)C)c3O[C@@H]1CO2 [Example 21, 2,3,9-Trimethoxy-8-(3-methyl-but-2-enyl)-6a,12a-dihydro-6H-chromeno[3,4-b]chromen-12-one]	5200	–	–
COc1ccc([C@H]2COc3c(ccc4c3C=CC(C)(C)O4)C2=O)cc1OC [Example 25, (3S)-3-(3,4-Dimethoxyphenyl)-8,8-dimethyl-2,3-dihydro-4H,8H-pyrano[2,3-f]chromen-4-one]	4500	–	–
COc1ccc(CC(=O)c2ccc3c(c2)C=CC(C)(C)O3)cc1OC [Example 27, 2-(3,4-Dimethoxyphenyl)-1-(2,2-dimethyl-2H-chromen-6-yl)ethanone]	1000	–	–
COc1ccc(C(C)C(=O)c2ccc3c(c2OC)C=CC(C)(C)O3)cc1OC (stereo not drawn) [Example 29, 2-(3,4-Dimethoxyphenyl)-1-(5-methoxy-2,2-dimethyl-2H-chromen-6-yl)propan-1-one]	730	–	–
COc1ccc(C(C)(C)C(=O)c2ccc3c(c2OC)C=CC(C)(C)O3)cc1OC [Example 30, 2-(3,4-Dimethoxyphenyl)-1-(5-methoxy-2,2-dimethyl-2H-chromen-6-yl)-2-methylpropan-1-one]	3200	–	–
COc1ccc(C2(C(=O)c3ccc4c(c3OC)C=CC(C)(C)O4)CC2)cc1OC [Example 32]	102000	–	–
COc1ccc([C@H](C)C(=O)c2ccc3c(c2OC)C=CC(C)(C)O3)cc1OC [Example 33, (S)-2-(3,4-Dimethoxyphenyl)-1-(5-methoxy-2,2-dimethyl-2H-chromen-6-yl)propan-1-one]	490	–	–
COc1ccc([C@@H](C)C(=O)c2ccc3c(c2OC)C=CC(C)(C)O3)cc1OC [Example 34, (R)-2-(3,4-Dimethoxyphenyl)-1-(5-methoxy-2,2-dimethyl-2H-chromen-6-yl)propan-1-one]	1300	–	–
COc1c(C(=O)Cc2ccc3c(c2)OCCO3)ccc2c1C=CC(C)(C)O2 [Example 58, 2-(2,3-dihydrobenzo[b][1,4]dioxin-6-yl)-1-(5-methoxy-2,2-dimethyl-2H-chromen-6-yl)ethanone]	–	1330	–
COc1c(C(=O)Cc2ccccc2C(F)(F)F)ccc2c1C=CC(C)(C)O2 [Example 69, 1-(5-methoxy-2,2-dimethyl-2H-chromen-6-yl)-2-(2-(trifluoromethyl)phenyl)ethanone]	–	2140	–
